Assay results as given in US10626077B2, “Salvianolic acid compound T, preparation method therefor, and use thereof” (TASLY PHARMACEUTICAL GROUP CO., LTD., priority 2013, dated 2020).

Legend:
[1] = test system: rats with myocardial infarction induced by coronary artery ligation; assay: Myocardial infarction rate (TTC staining) after coronary artery ligation; type: in vivo, SD rats; conditions: high-dose group compared with aspirin group; FIG. 11 heart biopsy
Experimental: Clean male SD rats were taken and placed in groups randomly according to the body-weight, including pseudo operation group (distilled water), model group (distilled water), aspirin group, (S)-salvianolic acid T low-dose group, (S)-salvianolic acid T high-dose group, and there were 10 rats in each group. Each group of rats were administrated by gastric administration once a day, continuously for 10 days. […] Recording standard II lead ECG at 5 minutes before surgery, 0 s, 1 min, 5 min, 15 min, 1 h, 4 h after the ligation, to investigate the changes of J point of ECG. Taking out the heart immediately after the end of the experiment, washing away the blood with normal saline, cutting off the atrium and the bottom of the blood vessels, weighing the mass of the ventricle, cutting the ventricle into 5 pieces on average along the atrioventricular groove and putting them into 1% (w/v) TTC solution, dyeing in the water bath at a constant temperature of 37 °C for 5 min, taking digital photos firstly after taking them out, then separating the unstained parts (that is, the infarct parts) and weighing to calculate the percentage of them in the mass of total ventricular (myocardial infarction percentage), and performing t test with ischemia model group. The formula for calculating the infarct percentage is as follows: Infarct percentage (%)=(the mass of pale areas/the mass of the ventricle)×100%

[2] = test system: L929 cells induced by TGF-β1; assay: Inhibition of L929 cell proliferation induced by TGF-β1 (MTT); type: cell-based; conditions: 2 μg/L TGF-β1, 72 h, MTT method
Experimental: L929 cells with a cell population of 5×10^7/L adjusted by DMEM culture solution containing 10% fetal bovine serum were seeded into 96 well plate, cultured for 24 h. Supplementing the same culture medium containing 2 μg/L TGF-β1 and (S)/(R)-salvianolic acid T of different concentrations. There were 6 multiple pores in each group, final concentration of (S)/(R)-salvianolic acid T was set as 0, 1, 3, 10, 20, 40, 80, 150 μmol/L. Removing medium after being cultured for 72 h, assaying the cell activity by MTT method.

[3] = test system: mice pulmonary fibrosis induced by bleomycin; assay: Anti-pulmonary fibrosis experiment in mice induced by bleomycin; type: in vivo, Kunming mice; conditions: 3 weeks
Experimental: Dividing the 40 mice into 4 groups: □ normal control group, given nasal dripping of normal saline, drenched with normal saline; □ model control group:given nasal dripping of bleomycin, drenched with normal saline; □(S)-salvianolic acid T group (16 mg/kg): given nasal dripping of bleomycin, drenched with (S)-salvianolic acid T solution; □(R)-salvianolic acid T group (16 mg/kg): given nasal dripping of bleomycin, drenched with (R)-salvianolic acid T solution; 10 mice in each group.
On the first day of the experiment, the mice were anesthetized with chloral hydrate, each mouse was given disposable nasal dripping of 50 μg bleomycin to establish the pulmonary fibrosis model. On the second day of the experiment, two treatment groups were drenched with (S)/(R)-salvianolic acid T, the model group and the normal group were drenched with equal volume of normal saline, once each day, 3 consecutive weeks. On the 21th day of the experiment, serum was separated from the blood collected from the orbital vein to detect TGF-β1, the mice were killed to take lungs, ground with double distilled water (the ratio of lungs and double distilled water was 1:5 (w/v)) into tissue homogenate, centrifuged to detect the MDA, superoxide dismutase (SOD), catalase (CAT), peroxidase (POD) in the tissues.

[4] = DPPH free-radical scavenging reaction
Experimental: Absorbance of the reaction solution was measured at 517 nm. In this study, vitamin C was regarded as a positive control. Free-radical scavenging rate was calculated in accordance with the following equation: Free-radical scavenging rate (%)=[1−Asample/Acontrol)/Acontrol]×100% Wherein, the Asample means the absorbance of the tested samples, and Acontrol means the absorbance of blank control.

[5] = Determination of reducing capacity (potassium ferricyanide / ferric chloride, absorbance at 700 nm)
Experimental: 0.5 ml of 200 mM phosphate buffer (pH6.8) containing different concentrations of the (S)/(R)-salvianolic acid T and 0.5 ml of 1.0% (w/v) potassium ferricyanide solution were sucked respectively and cooled on an ice bath after being heated on a water bath (50[…]) for 20 min. 0.5 ml of 10% trichloroacetic acid solution was added and centrifuged at […] for 10 min. 1.0 ml of the resulting supernatant was taken, into which 1.0 ml of distilled water and 0.2 ml of 0.1% (w/v) ferric chloride solution were added, stood still for 10 min and the absorbance was measured at 700 nm. Meanwhile, the blank experiment was carried out. Vitamin C is a strongly reducing substance, acting as positive control in this study. Reducing capacity of the sample is represented by subtracting the absorbance of the blank control from the absorbance of the tested sample. Thus, it means the higher absorbance, the stronger reducing capacity.

[6] = 16 mg/kg, lung tissue homogenate
[7] = compared with positive control vitamin C

## O=C(/C=C/c1ccc(O)c(O)c1/C(=C\c1ccc(O)c(O)c1)C(=O)O)O[C@H](Cc1ccc(O)c(O)c1)C(=O)O [(R)-salvianolic acid T]
[1]
  effect on preventing acute myocardial infarction induced by coronary artery ligation: equal effect
[2]
  IC50: 26.9 µM
[3]; 16 mg/kg drenched once each day, day 21
  Serum TGF-β1: 254 ± 29 ng/L
[3]; [6]
  CAT: 23.1 ± 2.9 U/g
  MDA: 311 ± 29 µg/g
  POD: 16.4 ± 1.9 U/g
  SOD: 52.2 ± 5.1 U/g
  Tissue TGF-β1: 562 ± 69 pg/g
[4]; [7]
  free-radical scavenging compared with vitamin C: much higher free-radical scavenging than that of the vitamin C
[4]; sample 0.625 μg/ml, 100 μM DPPH, 20 min, 25° C.
  Free-radical scavenging rate: 10.51 ± 0.73%
[4]; sample 1.25 μg/ml
  Free-radical scavenging rate: 28.15 ± 2.47%
[4]; sample 2.5 μg/ml
  Free-radical scavenging rate: 43.41 ± 1.85%
[4]; sample 5 μg/ml
  Free-radical scavenging rate: 85.59 ± 8.75%
[4]; sample 10 μg/ml
  Free-radical scavenging rate: 99.47 ± 5.14%
[5]; [7]
  reducing capacity compared with vitamin C: much stronger than that of vitamin C
[5]; sample 3.125 μg/ml
  reducing capacity (absorbance at 700 nm minus blank control): 0.152 ± 0.034
[5]; sample 6.25 μg/ml
  reducing capacity (absorbance at 700 nm minus blank control): 0.212 ± 0.009
[5]; sample 12.5 μg/ml
  reducing capacity (absorbance at 700 nm minus blank control): 0.042 ± 0.011
[5]; sample 25 μg/ml
  reducing capacity (absorbance at 700 nm minus blank control): 0.761 ± 0.018
[5]; sample 50 μg/ml
  reducing capacity (absorbance at 700 nm minus blank control): 1.561 ± 0.026
